What was measured:
[1] = system: TARC production in HDM stimulated human PBMCs; assay: TARC production in HDM stimulated human PBMCs; format: cell-based
Description: Materials included Human peripheral blood mononuclear cells (PBMCs) that were isolated from healthy donor blood and either frozen in liquid nitrogen and thawed prior to analysis or used fresh. Materials also included HDM (house dust mite extract) that was from Greer lab and purchased through Fisher Scientific (NC9756554, Lot #390844). Additionally, Human IL-4 (204-IL-010) was purchased from R&D Systems; Human IL-13 (200-13) was purchased from Peprotech; JAK inhibitors (JAKi) Abrocitinib (HY-107429) and Upadacitinib (HY-19569) were purchased from MedChemExpress; Dexamethasone (D4902) was purchased from Sigma-Aldrich; Dupilumab (HY-P9926) was purchased from MedChemExpress; Tralokinumab was produced by Bluefin Biomedicine according to the published protein sequence; and TARC ELISA kits (DuoSet Cat #DY364, Quantikine Cat #SDN00) were purchased from R&D Systems.
Blood was drawn in heparin tubes from healthy volunteers. PBMCs were isolated by centrifugation of the blood over Ficoll-Paque Plus density gradients using LeucoSep tubes.
(§1) 0.2 million PBMCs in 100 ul medium (RPMI1640, 10% heat-inactivated FBS) were added to each well of 96 well cell culture plate. BFB759 at multiple concentrations in 50 ul medium was added to the wells. The cells were incubated in the incubator for 45 min. Then, 50 ul HDM solution (final concentration 10 ug/ml) was added to the wells. After 7 days incubation, the supernatant was transferred to a new 96 well plate, and used in TARC ELISA right away, or frozen in −80 C freezer for ELISA later. For the combination studies of BFB759 with other drugs, the single agent or combination of drugs were added to the PBMCs, incubated for 45 min, then HDM solution, or HDM and IL-4 or IL-13 solution were added to the wells. The assay was incubated for 7 days, and the supernatant was harvested for TARC ELISA.

[2] = system: TARC expression in PBMCs stimulated with HDM and IL-4; assay: TARC in PBMCs treated by HDM and hIL-4; format: cell-based, human; settings: HDM 10 ug/ml, IL-4 750 ug/ml; three antibody concentrations
Experimental: as §1
Dupilumab is approved for treatment of AD (Atopic Dermatitis). It inhibits IL-4/13 signaling by blocking their binding to IL-4Ra. […] (FIG. 15)
In the data shown in FIG. 15, HDM was used at 10 ug/ml, IL-4 was used at […], antibodies were at three different concentrations as shown in the graph. Data shown are mean±s.d.

[3] = system: IL-6 secretion in human whole blood cultures stimulated with HKCA; assay: IL-6 production in human whole blood cultures stimulated with heat-killed Candida albicans; format: cell-based; settings: 24 hours, 1 μg/ml alone, combination 1 μg/ml BFB759 + 0.5 μg/ml adalimumab
Description: Materials included Human peripheral blood drawn from 5 healthy donors. Materials also included Anti-human TNF alpha (Adalimumab Biosimilar), BioXCell cat #SIM0001, lot #8024221F1; Heat-killed Candida albicans (HKCA), InvivoGen cat #tlrl-hkca, lot #6292-44-02; RPMI 1640 with L-glutamine and HEPES, Corning cat #10-041-CM; and Human IL-6 DuoSet ELISA, R and D Systems cat #DY206-05. Blood was drawn into heparin tubes from healthy volunteers. Whole blood cultures comprised of whole blood diluted with plain RPMI 1640 medium were set up in sterile 5.0 ml polypropylene snap cap culture tubes. One of the following treatments were added for 1 hour prior to either being left unstimulated or receiving stimulation with 1.5×10^6 cells heat-killed Candida albicans: medium alone (cells alone), 1 μg/ml IgG1 isotype control antibody alone, 1 μg/ml BFB759 alone, 1 μg/ml adalimumab alone, or one of two combination treatments of 1 μg/ml IgG1 isotype control antibody+0.5 μg/ml adalimumab or 1 μg/ml BFB759+0.5 μg/ml adalimumab. The final volume of each culture was 1.0 ml. Cultures were incubated for 24 hours at 37° C./5% CO2. Supernatants harvested from each culture in duplicate were frozen at −80° C. until assayed in duplicate for IL-6 levels by ELISA.

[4] = system: normal human dermal fibroblasts (NHDF); assay: IL-6 and IL-8 production in NHDF stimulated with cytokine combo incl. TNF-α; format: cell-based; settings: cytokine combo IL-1α/β, IL-36α/β/γ, antibodies 0-20 ug/ml, BFB759 0.5 ug/ml in combination
Experimental: (§2) Human NHDF cells were plated on 96-well, flat-bottom plates at 4,000 cells/well. […] For combination therapy, 0.5 ug/ml BFB759 was mixed with adalimumab or isotype control antibody at increasing concentrations (0-20 ug/ml, 5-fold dilution) and incubated with cells in duplicate for 45 minutes, prior to the addition of cytokine combo. The plates were then incubated overnight at 37° C., 5% CO2. 24 hours after treatment, supernatants were transferred and assayed for IL-6 and IL-8, as per manufacture's protocol (R&D Systems; Human IL-6 DuoSet ELISA, Human IL-8/CXCL8 DuoSet ELISA). The raw assay data were analyzed using GraphPad Prism 9 software to perform a non-linear regression.

[5] = system: normal human dermal fibroblasts (NHDF); assay: IL-6 and IL-8 production in NHDF stimulated with cytokine combo incl. IL-17A; format: cell-based; settings: cytokine combo IL-1α/β, IL-36α/β/γ, antibodies 0-20 ug/ml, BFB759 0.5 ug/ml in combination
Experimental: as §2, with “Secukinumab” for “adalimumab”, “Isotype” for “isotype”

Compound: Dupilumab: approved for Atopic Dermatitis; inhibits IL-4/13 signaling by blocking their binding to IL-4Ra
- inhibition of TARC level ([1]; HDM stimulated PBMCs, same assay): does not inhibit TARC level significantly
- inhibition of HDM induced TARC level, FIG. 13 ([1]; antibodies 30 ug/ml, HDM 10 ug/ml): does not or minimally inhibits
- inhibition of TARC expression in the HDM and IL-4 model [2]: partially inhibits

Compound: adalimumab [reference compound]
- inhibition of IL-6 secretion [3]: inhibit IL-6 secretion
- IL-6 production [4]: limited inhibition
- IL-8 production [4]: limited inhibition

Compound: Secukinumab: anti-IL-17A antibody [reference compound]
- IL-6 production [5]: limited inhibition
- IL-8 production [5]: limited inhibition

Compound: CCCS(=O)(=O)N[C@H]1C[C@@H](N(C)c2ncnc3[nH]ccc23)C1 [Abrocitinib]
- inhibition of TARC in HDM stimulated cells ([1]; HDM 10 ug/ml, JAKi and dexamethasone 0.1 nM, 10 nM, 1 uM, BFB759 1 ug/ml in combination): dose dependent inhibition
